According to patent US7700624B2, “3-aminocyclopentanecrboxamides as modulators of chemokine receptors” (Incyte Corporation, priority 2005, dated 2010):

target: T1, CCR2 (Homo sapiens, UniProt P41597); assay: CCR2 binding assay: 125I-labeled MCP-1 binding to human PBMCs; conditions: inhibition of specific binding of 0.1 to 0.2 nM 125I-labeled MCP-1 to human PBMCs, 30 min at room temperature
T1 construct: Peripheral Blood Mononuclear Cells (PBMCs) prepared from normal human whole blood via density gradient centrifugation; endogenous in cells; host or cells: human PBMCs from normal whole blood
T1 sequence (P41597 1-360 isoform P41597-2): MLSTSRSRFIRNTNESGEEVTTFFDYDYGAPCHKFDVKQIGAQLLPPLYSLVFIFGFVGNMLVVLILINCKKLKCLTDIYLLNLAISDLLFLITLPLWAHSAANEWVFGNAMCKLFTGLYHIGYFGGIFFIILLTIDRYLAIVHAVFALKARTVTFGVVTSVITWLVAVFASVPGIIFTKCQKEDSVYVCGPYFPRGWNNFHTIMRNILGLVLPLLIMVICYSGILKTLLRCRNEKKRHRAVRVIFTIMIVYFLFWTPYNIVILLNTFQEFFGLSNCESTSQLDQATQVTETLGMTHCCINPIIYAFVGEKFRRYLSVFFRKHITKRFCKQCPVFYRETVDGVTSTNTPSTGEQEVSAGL
Text: The CCR2 antagonist activity of compounds of the invention can be reported as the inhibitor concentration required for 50% inhibition (IC50 values) of specific binding in receptor binding assays using ^125I-labeled MCP-1, as ligand, and Peripheral Blood Mononuclear Cells (PBMCs) prepared from normal human whole blood via density gradient centrifugation. Specific binding is preferably defined as the total binding (e.g., total cpm on filters) minus the non-specific binding. Non-specific binding is defined as the amount of cpm still detected in the presence of excess unlabeled competitor (e.g., MCP-1).
Human PBMCs are used to test compounds of the invention in a binding assay. For example, 200,000 to 500,000 cells are incubated with 0.1 to 0.2 nM ^125I-labeled MCP-1, with or without unlabeled competitor (10 nM MCP-1) or various concentrations of compounds to be tested. ^125I-labeled MCP-1, are prepared by suitable methods or purchased from commercial vendors (Perkin Elmer, Boston Mass.). The binding reactions are performed in 50 to 250 μL of a binding buffer consisting of […] pH 7.2, and 0.1% BSA (bovine serum albumin), for 30 min at room temperature. The binding reactions are terminated by harvesting the membranes by rapid filtration through glass fiber filters (Perkin Elmer) which is presoaked in 0.3% polyethyleneimine or Phosphate Buffered Saline (PBS). The filters were rinsed with approximately 600 μL of binding buffer containing 0.5 M NaCl or PBS, then dried, and the amount of bound radioactivity is determined by counting on a Gamma Counter (Perkin Elmer).

Structure (SMILES)	IC50
COc1ccc(CN[C@@H]2CC[C@@](C(=O)N3CCN(c4cc(C(F)(F)F)ccn4)CC3)(C(C)C)C2)c(OC)c1 [Example 10, (1R,3S)-N-(24-dimethoxybenzyl)-3-isopropyl-3-({4-[4-(trifluoromethyl)pyridin-2-yl]piperazin-1-yl}carbonyl)cyclopentanamine]	519 nM
CC(C)[C@]1(C(=O)N2CCN(c3cc(C(F)(F)F)ccn3)CC2)CC[C@@H](NC2Cc3ccccc3C2)C1 [Example 14, N-[(1R,3S)-3-isopropyl-3-({4-[4-(trifluoromethyl)pyridin-2-yl]piperazin-1-yl}carbonyl)cyclopentyl]indan-2-amine]	74.8 nM
CC(C)[C@]1(C(=O)N2CCN(c3cc(C(F)(F)F)ccn3)CC2)CC[C@@H](NC2CCS(=O)(=O)CC2)C1 [Example 15, N-[(1R-3S)-3-isopropyl-3-({4-[4-(trifluoromethyl)pyridin-2-yl]piperazin-1-yl}carbonyl)cyclopentyl]tetrahydro-2H-thiopyran-4-amine 11-dioxide]	541 nM
CCCNC(=O)CCC1CCCC1N[C@@H]1CC[C@@](C(=O)N2CCN(c3cc(C(F)(F)F)ccn3)CC2)(C(C)C)C1 (stereo partly drawn) [Example 17, 3-(2-{[(1R,3S)-3-isopropyl-3-({4-[4-(trifluoromethyl)pyridin-2-yl]piperazin-1-yl}carbonyl)cyclopentyl]amino}cyclopentyl)-N-propylpropanamide]	190 nM
CC(C)[C@]1(C(=O)N2CCN(c3cc(C(F)(F)F)ccn3)CC2)CC[C@@H](N(C)C2CCOC2)C1 (stereo partly drawn) [Example 24, N-[(1R,3S)-3-isopropyl-3-({4-[4-(trifluoromethyl)pyridin-2-yl]piperazin-1-yl}carbonyl)cyclopentyl]—N-methyltetrahydrofuran-3-amine]	181 nM
COc1ccc(CN[C@@H]2CC[C@@](C(=O)N3CCN(c4cc(C(F)(F)F)ccn4)CC3)(C(C)C)C2)cc1OC [Example 25, (1R,3S)-N-(34-dimethoxybenzyl)-3-isopropyl-3-({4-[4-(trifluoromethyl)pyridin-2-yl]piperazin-1-yl}carbonyl)cyclopentanamine]	500 nM
CC(C)[C@]1(C(=O)N2CCN(c3cc(C(F)(F)F)ccn3)CC2)CC[C@@H](NCc2ccc(O)cc2)C1 [Example 27, 4-({[(1R,3S)-3-isopropyl-3-({4-[4-(trifluoromethyl)pyridin-2-yl]piperazin-1-yl}carbonyl)cyclopentyl]amino}methyl)phenol]	470 nM
CC(C)[C@]1(C(=O)N2CCN(c3cc(C(F)(F)F)ccn3)CC2)CC[C@@H](NCc2ccc(F)cc2)C1 [Example 28, (1R,3S)-N-(4-fluorobenzyl)-3-isopropyl-3-({4-[4-(trifluoromethyl)pyridin-2-yl]piperazin-1-yl}carbonyl)cyclopentanamine]	389 nM

More lines, in order of falling IC50, values ahead:

IC50	Structure (SMILES)
736 nM	COc1ccc(CN[C@@H]2CC[C@@](C(=O)N3CCN(c4cc(C(F)(F)F)ccn4)CC3)(C(C)C)C2)cc1O [Example 29, 5-({[(1R,3S)-3-isopropyl-3-({4-[4-(trifluoromethyl)pyridin-2-yl]piperazin-1-yl}carbonyl)cyclopentyl]amino}methyl)-2-methoxyphenol]
364 nM	CC(C)[C@]1(C(=O)N2CCN(c3cc(C(F)(F)F)ccn3)CC2)CC[C@@H](NCc2ccc3c(c2)OCC(=O)N3)C1 [Example 30, 6-({[(1R,3S)-3-isopropyl-3-({4-[4-(trifluoromethyl)pyridin-2-yl]piperazin-1-yl}carbonyl)cyclopentyl]amino}methyl)-2H-14-benzoxazin-3(4H)-one]
334 nM	COc1cc(CN[C@@H]2CC[C@@](C(=O)N3CCN(c4cc(C(F)(F)F)ccn4)CC3)(C(C)C)C2)ccc1C [Example 31, (1R,3S)-3-isopropyl-N-(3-methoxy-4-methylbenzyl)-3-({4-[4-(trifluoromethyl)pyridin-2-yl]piperazin-1-yl}carbonyl)cyclopentanamine]
273 nM	CC(C)NC(=O)CCC1CCCC1N[C@@H]1CC[C@@](C(=O)N2CCN(c3cc(C(F)(F)F)ccn3)CC2)(C(C)C)C1 (stereo partly drawn) [Example 13, N-isopropyl-3-(2-{[(1R,3S)-3-isopropyl-3-({4-[4-(trifluoromethyl)pyridin-2-yl]piperazin-1-yl}carbonyl)cyclopentyl]amino}cyclopentyl)propanamide]
273 nM	CC(C)[C@]1(C(=O)N2CCN(c3cc(C(F)(F)F)ccn3)CC2)CC[C@@H](NCc2ccc3[nH]ccc3c2)C1 [Example 26, (1R,3S)-N-(1H-indol-5-ylmethyl)-3-isopropyl-3-({4-[4-(trifluoromethyl)pyridin-2-yl]piperazin-1-yl}carbonyl)cyclopentanamine]
227 nM	CC(C)[C@]1(C(=O)N2CCN(c3cc(C(F)(F)F)ccn3)CC2)CC[C@@H](NC2CCCC2)C1 [Example 16, (1R,3S)-N-cyclopentyl-3-isopropyl-3-({4-[4-(trifluoromethyl)pyridin-2-yl]piperazin-1-yl}carbonyl)cyclopentanamine]
80.6 nM	CC1OCCC1N[C@@H]1CC[C@@](C(=O)N2CCN(c3cc(C(F)(F)F)ccn3)CC2)(C(C)C)C1 (stereo partly drawn) [Example 20, 2,5-anhydro-1,3,4-trideoxy-3-{[(1R,3S)-3-isopropyl-3-({4-[4-(trifluoromethyl)pyridin-2-yl]piperazin-1-yl}carbonyl)cyclopentyl]amino}pentitol]
10.1 nM	CC1COCC(C)C1N[C@@H]1CC[C@@](C(=O)N2CCN(c3cc(C(F)(F)F)ccn3)CC2)(C(C)C)C1 (stereo partly drawn) [Example 21, N-[(1R,3S)-3-isopropyl-3-({4-[4-(trifluoromethyl)pyridin-2-yl]piperazin-1-yl}carbonyl)cyclopentyl]-35-dimethyltetrahydro-2H-pyran-4-amine]
